Measured values published in patent US12590118B2, “Salt and crystal form of steroid derivative regulator” (Shanghai Hansoh Biomedical Co., Ltd., priority 2019, dated 2026).

Key:
[1] = target: GABA-A receptor; assay: 35S-TBPS binding assay (GABAA receptor binding ability assay); parameters: species or system Sprague-Dawley rat; details: rat cerebral cortex cell membrane, 5 μM GABA, 2 nM 35S-TBPS; read-out: IC50 on inhibiting the TBPS binding activity, 35S-TBPS bindng assay
Protocol: 1. The cerebral cortex of male Sprague-Dawley rat was isolated.
2. A pre-chilled 0.32 M sucrose solution (one tablet of protease inhibitor was added per 100 mL) was added to the cerebral cortex (the volume of sucrose solution was 10 times the volume of the cerebral cortex). The mixture was crushed with a 50 mL glass tissue homogenizer in batches and mixed well.
3. The mixture was centrifuged at 1,500 g, 4° C. for 10 minutes, and the supernatant was collected.
4. The mixture was centrifuged at 20,000 g, 4° C. for 30 minutes, and the supernatant was discarded.
5. The precipitate was resuspended with the pre-chilled phosphate buffer saline (PBS) (one tablet of protease inhibitor was added per 100 mL). An average of 4 mL of PBS was added per rat, and the mixture was mixed well with a glass tissue homogenizer.
6. The mixture was centrifuged at 10,000 g, 4° C. for 10 minutes, and the supernatant was discarded.
7. Steps 5 and 6 were repeated three times.
8. Finally, the precipitate was resuspended with 4 volumes of PBS. The resulting solution was dispensed, frozen in liquid nitrogen, and stored at −80° C.
9. The protein concentration was measured by the bicinchoninic acid (BCA) method.
1. 230 μL of PBS was added to each well of a well plate with 1.1 mL volume.
2. 60 μL of the cerebral cortex cell membrane (5 μg/μL) solution was added to each well, and the mixture was mixed well.
3. The test compound (3 μL per well) was added, and the plate was incubated at 25° C. for 5 minutes. The DMSO concentration was 1%. The initial compound concentration was […], and a
3-fold dilution in gradient was carried out to obtain a total of 8 gradients and 2 replicates. 1% DMSO was used as a negative control, and 10 μM P026-2 was used as a positive control.
4. GABA was added at a final concentration of 5 μM, and incubated at 25° C. for 5 minutes. 1 mM GABA solution was formulated, and 1.5 μL of the solution was added to each well.
5. 35S-TBPS was added at a final concentration of 2 nM. The concentration of isotope mother solution was 9.7 μM. After dilution with PBS for 100 times, 6 μL of the diluted isotope solution was added to each well.
6. The plate was incubated at 4° C. for 20 hours.
7. The FilterMate GF/C plate was pre-treated with 0.5% PEI, and incubated at 4° C. for 1 hour.
8. The FilterMate GF/C plate was washed with Universal Harvester twice, 50 mL PBS each time.
9. The reaction solution was transferred to the GF/C plate, and each well was washed 4 times with 900 μL of PBS.
10. The washed GF/C plate was placed at 55° C. and dried for 10 minutes.
11. 40 μL of scintillation solution was added to each well, and the CPM value was read with TopCount.
In the experiment, the CPM (counts per minute) value was read with TopCount. According to the readings of the High control (DMSO) and the Low control (10 μM of the positive compound) experimental groups, the % inhibition was calculated based on the following formula: % Inhibition=100×(CPMHigh control−CPMsample)/(CPMHigh control−CPMLow control)
The IC50 of the compound was calculated according to the following 4-parameter nonlinear logic formula: Y=Bottom+(Top−Bottom)/(1+10^((Log IC50−X)*HillSlope)),
wherein: • X represents the log of compound concentration, • Y represents the % Inhibition.
The effect of the compound of the present invention on the TBPS binding activity was determined by the above test, and the measured IC50 values are shown in Table 5.

[2] = system: ICR mice; assay: Forced swimming model in mice; format: in vivo; details: for Mean (immobility, %): floating time/240 s; for Mean (immobility, s): latter four minutes of 6 min swim; for immobility time during the latter four minutes compared with that of the model group: forced swimming, ICR mice
Protocol: The antidepressant effect of the compound was evaluated by the forced swimming model in mice.
Compounds of Examples 1 to 3, Example 9, Example 40, Example 41, Examples 48 to 52, Example 90 and Example 98 of the present invention, prepared by the applicant.
Male ICR mice (25-35 g) were adapted in the experiment environment for 3 days before the forced swimming test.
According to the experiment design, the mice were randomly grouped on the day before the experiment according to body weight, with 12 mice in each group. Before the test, the compounds of each example were administered intragastrically according to the Tmax thereof in the brain in mice pharmacokinetic experiment.
Respectively: • 1) Model group (0.5% CMC-Na-1% Tween 80 solution, p.o., 10 mL/kg); • 2) Compounds of Examples 1 to 3, Example 40, Example 41, Examples 48 to 51, Example 90 and Example 98 (10 mg/kg, p.o., 10 mL/kg); Example 9 and Example 52 (5 mg/kg, p.o., 5 mL/kg).
When being administered, the compounds of each example were suspended in 0.5% CMC-Na+1% Tween 80 solution to the desired concentration.
0.5-1 hour after administration, ICR mice were placed in a forced swimming device (transparent glass drum (water depth 18 cm, water temperature 25-26° C.), one mouse per tank) and forced to swim for 6 minutes. The forced swimming device recorded the floating time of the ICR mice during the entire 6 minutes, and the data of the latter four minutes were used for data analysis. The mice were taken out immediately after the swimming experiment, wiped dry and put back in their original cages.
Note: The criterion for determining the immobility time is that the mouse stops struggling in water and floats, and there are only slight limb movements to keep the head floating on the water.
3.4 Data Analysis Floating time percentage=100*floating time/240 s.

[3] = target: T1, human GABAA receptor α1, β2 and γ2 subunit (HEK293T cell line) (Homo sapiens, UniProt P14867+P47870); assay: Positive regulatory effect on GABAA receptor, manual patch clamp; format: cell-based; details: whole-cell current, 1 μM GABA
T1 construct: expressed in transfected cells
T1 sequence (P14867 28-456): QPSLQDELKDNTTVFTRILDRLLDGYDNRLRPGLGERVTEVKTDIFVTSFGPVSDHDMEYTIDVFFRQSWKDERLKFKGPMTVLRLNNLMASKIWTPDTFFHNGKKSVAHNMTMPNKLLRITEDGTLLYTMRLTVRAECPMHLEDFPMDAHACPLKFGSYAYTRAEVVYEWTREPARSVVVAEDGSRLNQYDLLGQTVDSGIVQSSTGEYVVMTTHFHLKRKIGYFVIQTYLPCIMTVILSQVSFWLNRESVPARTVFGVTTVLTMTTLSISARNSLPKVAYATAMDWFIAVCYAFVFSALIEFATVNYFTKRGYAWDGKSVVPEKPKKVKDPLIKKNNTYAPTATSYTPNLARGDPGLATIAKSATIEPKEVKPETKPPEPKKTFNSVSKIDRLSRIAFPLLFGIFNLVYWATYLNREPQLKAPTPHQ
T1 sequence (P47870 25-512 limits assumed): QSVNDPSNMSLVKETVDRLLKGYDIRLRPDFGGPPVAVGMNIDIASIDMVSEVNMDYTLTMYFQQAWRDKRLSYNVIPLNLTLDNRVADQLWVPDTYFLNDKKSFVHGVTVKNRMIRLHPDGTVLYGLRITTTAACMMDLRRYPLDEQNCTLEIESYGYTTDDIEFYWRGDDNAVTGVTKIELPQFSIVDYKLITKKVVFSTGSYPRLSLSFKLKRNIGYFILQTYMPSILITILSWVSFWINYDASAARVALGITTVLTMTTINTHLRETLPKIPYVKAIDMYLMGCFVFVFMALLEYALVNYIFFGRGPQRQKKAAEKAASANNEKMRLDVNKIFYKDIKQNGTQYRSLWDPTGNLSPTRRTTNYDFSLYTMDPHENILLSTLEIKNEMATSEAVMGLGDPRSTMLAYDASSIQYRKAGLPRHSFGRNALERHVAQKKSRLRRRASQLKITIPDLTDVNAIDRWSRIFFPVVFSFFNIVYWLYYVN
T1 sequence (P18507 40-475 partner): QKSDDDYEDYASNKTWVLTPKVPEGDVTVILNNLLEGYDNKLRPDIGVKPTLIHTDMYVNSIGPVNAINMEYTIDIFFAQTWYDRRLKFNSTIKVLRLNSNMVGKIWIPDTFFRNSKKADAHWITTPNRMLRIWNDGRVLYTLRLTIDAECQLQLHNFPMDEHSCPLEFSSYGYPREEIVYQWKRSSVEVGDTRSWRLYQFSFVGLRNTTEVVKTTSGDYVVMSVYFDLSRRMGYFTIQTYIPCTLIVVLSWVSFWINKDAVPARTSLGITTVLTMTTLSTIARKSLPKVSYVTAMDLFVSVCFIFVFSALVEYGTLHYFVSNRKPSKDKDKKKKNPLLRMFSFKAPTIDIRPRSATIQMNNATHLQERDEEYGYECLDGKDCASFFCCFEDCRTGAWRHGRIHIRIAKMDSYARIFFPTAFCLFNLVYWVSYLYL
Protocol: The objective of this test example is to determine the positive regulatory effect of the compound on GABAA receptor by the electrophysiological manual patch clamp method.
Manual patch clamp system HEKA EPC10 USB signal amplifier and digital conversion system (purchased from HEKA Electronics, Germany), centrifuge (Eppendorf, etc.), carbon dioxide incubator (purchased from Thermo, etc.), biological safety cabinet (Thermo, etc.), pipette (purchased from Eppendorf, etc.).
The cells were grown in a culture dish with DMEM medium (purchased from Invitrogen), and cultured in an incubator at 37° C. and 5% CO2. Before the electrophysiological experiment, the cells were transferred to a round glass slide placed in the culture dish, and grown in the same culture medium and under the same culture condition as above. The density of cells on each round glass slide should meet the requirement that most cells were independent and individual.
Each test compound was diluted in gradient with DMSO to obtain a stock solution, which was then diluted with extracellular fluid by 1,000-fold to obtain the final test concentration. The final concentration of DMSO in the compound solution with each concentration was 0.1%. The experiment used the manual patch clamp system HEKA EPC10 USB signal amplifier and digital conversion system for whole cell current recording. The round glass slide with HEK293T GABAA cells grown on the surface was taken out of the culture dish, and placed in the electrophysiological recording tank under the inverted microscope. The recording tank was continuously perfused with extracellular fluid. During the experiment, the whole-cell current recording technology was used to record the chloride current of the GABAA channel. 1 μM GABA was used to activate the chloride current of the GABAA channel of each cell as an initial control. 1 μM GABA acted on the cell through the drug perfusion system to induce the chloride current of the GABAA channel, the action time was about 3 to 5 seconds, and the current value was used as the initial control value. The test concentration of compound was perfused and incubated for 2 to 5 minutes. […] GABA solution (mixed with the test concentration of compound) was given to the cells to observe the enhancement effect of the test compound on the current induced by 1 μM GABA. When the cell state was stable, the test compound acted on the same cell from low to high concentration to record the enhancement effect of the induced current.
The experimental data was analyzed by HEKA Patchmaster, Microsoft Excel and the data analysis software provided by Graphpad Prism.

SMILES	IC50 [1]	Mean (immobility, %) ([2]; dose 10 mpk p.o.)	Mean (immobility, s) ([2]; dose 10 mpk p.o.)	Mean (immobility, %) ([2]; dose 5 mpk p.o.)	Mean (immobility, s) ([2]; dose 5 mpk p.o.)	EC50 [3]	immobility time during the latter four minutes compared with that of the model group [2]
C[C@@]1(O)CC[C@H]2[C@H](CC[C@@H]3[C@@H]2CC[C@@]2(C)[C@H]3[C@@H]3C[C@@H]3[C@@H]2C(=O)Cn2cc(C#N)cn2)C1 [Example 1, 1-(2-((2R,4aS,4bR,6aS,7S,7aS,8aR,8bR,8cR,10aR)-2-hydroxy-2,6a-dimethyloctadecahydrocyclopropa[4,5]cyclopenta[1,2-a]phenanthren-7-yl)-2-oxoethyl)-1H-pyrazole-4-carbonitrile]	24.3 nM	54.26%	130.22 s	–	–	–	–
C[C@@]1(O)CC[C@H]2[C@H](CC[C@@H]3[C@@H]2CC[C@@]2(C)[C@H]3[C@@H]3C[C@@H]3[C@@H]2C(=O)Cn2cc(C(F)(F)F)cn2)C1 [Example 3, 1-((2R,4aS,4bR,6aS,7S,7aS,8aR,8bR,8cR,10aR)-2-Hydroxy-2,6a-dimethyloctadecahydrocyclopropa[4,5]cyclopenta[1,2-a]phenanthren-7-yl)-2-(4-(trifluoromethyl)-1H-pyrazol-1-yl)ethan-1-one]	13.5 nM	59.93%	143.81 s	–	–	–	–
C[C@@]1(O)CC[C@H]2[C@H](CC[C@@H]3[C@@H]2CC[C@]2(C)C(C(=O)Cn4cc(C#N)cn4)C[C@@H](C4CC4)[C@@H]32)C1 (stereo partly drawn) [Example 48, 1-(2-((3R,5R,8R,9R,10S,13S,14S,15S)-15-Cyclopropyl-3-hydroxy-3,13-dimethylhexadecahydro-1H-cyclopenta[a]phenanthren-17-yl)-2-oxoethyl)-1H-pyrazole-4-carbonitrile]	7.5 nM	55.92%	134.21 s	–	–	–	–
C[C@@]1(O)CC[C@H]2[C@H](CC[C@@H]3[C@@H]2CC[C@@]2(C)[C@H]3[C@H](C3CC3)C[C@@H]2C(=O)Cn2ccnn2)C1 [Example 51, 1-((3R,5R,8R,9R,10S,13S,14S,15S,17S)-15-Cyclopropyl-3-hydroxy-3,13-dimethylhexadecahydro-1H-cyclopenta[a]phenanthren-17-yl)-2-(1H-1,2,3-triazol-1-yl)ethan-1-one]	–	–	–	30.72%	73.72 s	–	–
C[C@@H]1C[C@H](C(=O)Cn2ccc(C(F)(F)F)n2)[C@@]2(C)CC[C@H]3[C@@H](CC[C@@H]4C[C@](C)(O)CC[C@@H]43)[C@H]12 [Example 86, 1-((3R,5R,8R,9R,10S,13S,14S,15R,17S)-3-Hydroxy-3,13,15-trimethylhexadecahydro-1H-cyclopenta[a]phenanthren-17-yl)-2-(3-(trifluoromethyl)-1H-pyrazol-1-yl)ethan-1-one]	8 nM	–	–	–	–	74 nM	–
C[C@@H]1C[C@H](C(=O)Cn2cc(C#N)c(Cl)n2)[C@@]2(C)CC[C@H]3[C@@H](CC[C@@H]4C[C@](C)(O)CC[C@@H]43)[C@H]12 [Example 88, 3-Chloro-1-(2-((3R,5R,8R,9R,10S,13S,14S,15R,17S)-3-hydroxy-3,13,15-trimethylhexadecahydro-1H-cyclopenta[a]phenanthren-17-yl)-2-oxoethyl)-1H-pyrazole-4-carbonitrile]	6.7 nM	–	–	–	–	49 nM	–
C[C@@H]1C[C@H](C(=O)Cn2nc(C#N)cc2C#N)[C@@]2(C)CC[C@H]3[C@@H](CC[C@@H]4C[C@](C)(O)CC[C@@H]43)[C@H]12 [Example 89, 1-(2-((3R,5R,8R,9R,10S,13S,14S,15R,17S)-3-Hydroxy-3,13,15-trimethylhexadecahydro-1H-cyclopenta[a]phenanthren-17-yl)-2-oxoethyl)-1H-pyrazole-3,5-dicarbonitrile]	4.3 nM	–	–	–	–	43 nM	–
CC[C@@H]1C[C@H](C(=O)Cn2ccc(C#N)n2)[C@@]2(C)CC[C@H]3[C@@H](CC[C@@H]4C[C@](C)(O)CC[C@@H]43)[C@H]12 [Example 90, 1-(2-((3R,5R,8R,9R,10S,13S,14S,15R,17S)-15-Ethyl-3-hydroxy-3,13-dimethylhexadecahydro-1H-cyclopenta[a]phenanthren-17-yl)-2-oxoethyl)-1H-pyrazole-3-carbonitrile]	16.2 nM	36.92%	88.61 s	–	–	–	very significantly different
C[C@@]1(O)CC[C@H]2[C@H](CC[C@@H]3[C@@H]2CC[C@@]2(C)[C@H]3[C@H](C3CC3)C[C@@H]2C(=O)Cn2ncnn2)C1 [Example 98, 1-((3R,5R,8R,9R,10S,13S,14S,15S,17S)-15-Cyclopropyl-3-hydroxy-3,13-dimethylhexadecahydro-1H-cyclopenta[a]phenanthren-17-yl)-2-(2H-tetrazol-2-yl)ethan-1-one]	21.4 nM	–	–	33.54%	80.5 s	–	very significantly different
